The term IC50 denotes the midpoint of a concentration-inhibition curve. The AC50 is the midpoint of the concentration-response curve, whichever way the signal moves. As usually defined, the EC50 is the concentration at which the effect is half-maximal.

Molecules are shown by their SMILES. Active and inactive are the calls of the source.

For assay [1], the target named is Disintegrin and metalloproteinase domain-containing protein 17 (Homo sapiens, UniProt P78536). In words: exosite inhibitors of ADAM17, dose response, biochemical (AID 743260).
A short description of assay [2]: reduction of Shn3 3'UTR firefly luciferase signal, dose response, Schnurri-3 inhibitor project, cell-based, Clone20 osteoblasts, cherry-pick, set 2 (AID 720490).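 Further: actives lower the luminescence signal as inhibitors.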 The class given is functional.
Another assay deals with T1, Mucolipin-3 (Homo sapiens, UniProt Q8TDD5).
T1 sequence (Q8TDD5 whole entry): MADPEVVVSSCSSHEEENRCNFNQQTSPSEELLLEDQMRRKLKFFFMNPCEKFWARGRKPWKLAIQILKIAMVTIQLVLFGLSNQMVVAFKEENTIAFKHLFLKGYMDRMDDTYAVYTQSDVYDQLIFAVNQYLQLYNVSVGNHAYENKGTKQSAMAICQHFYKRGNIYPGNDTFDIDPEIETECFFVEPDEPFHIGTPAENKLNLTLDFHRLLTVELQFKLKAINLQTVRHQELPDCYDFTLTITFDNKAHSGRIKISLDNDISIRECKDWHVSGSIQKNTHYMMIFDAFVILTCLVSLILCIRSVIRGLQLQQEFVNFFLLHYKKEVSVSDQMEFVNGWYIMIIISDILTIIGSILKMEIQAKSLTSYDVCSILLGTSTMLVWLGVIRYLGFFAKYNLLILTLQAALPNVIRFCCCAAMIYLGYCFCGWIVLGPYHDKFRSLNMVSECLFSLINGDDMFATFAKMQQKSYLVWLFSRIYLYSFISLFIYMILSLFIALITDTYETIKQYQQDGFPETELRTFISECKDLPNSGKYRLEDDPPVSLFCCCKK
In words: Dose response cell-based high-throughput screening assay for agonists of the transient receptor potential channel ML3 (TRPML3). [Related pubchem assays: 1526, 1424, 1448 ]. Format: functional.

Assay [3] can be described thus: HepG2 cell cytotoxicity, dose response, cytotoxicity control for Shn3 inhibitor project, CellTiter-Glo, cherry-picked (AID 624134). The class given is functional, cell-based.
Assay [4] can be described thus: Shn3 3'UTR reporter inhibitors, dose response, cell-based, Clone20 osteoblasts, firefly luciferase, cherry-picked (AID 624132).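 Further: firefly luciferase luminescence from reporter carrying the Shn3 3'UTR in osteoblasts.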 Format: functional.
In another assay the target is Ion channel NompC (Danio rerio, UniProt Q7T1G6). Description: Fluorescence counterscreen assay for TRPML3 agonists: dose response cell-based high-throughput screening assay to identify agonists of the transient receptor potential channel N1 (TRPN1). [Related pubchem assays: 1526, 1424, 1448 ]. Format: functional. Background: The purpose of a counterscreen is to sort out artefacts and off-target activity.

Assay [5] can be described thus: ADAM10 protease inhibitors, dose response, selectivity assay for ADAM17 exosite inhibitor project, biochemical, FRET peptide substrate, recombinant human ADAM10 (AID 743259).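 Further: ADAM10 enzyme cleaving a FRET peptide substrate.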
The nature of assay [6]: cells. The class given is functional, cell-based.
Assay [7] has as its target T2, Oxysterols receptor LXR-beta (Homo sapiens, UniProt P55055).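 Further: agonist activity at LXR measured by a cell-based luminescence readout across a dose range, run as a counterscreen for daf-12 agonists; HEK293 cells with Gal4-LXR fusion and GAL4-driven luciferase reporter; potency for activation of Gal4-LXR reporter so compounds are agonists.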
T2 sequence (P55055 whole entry): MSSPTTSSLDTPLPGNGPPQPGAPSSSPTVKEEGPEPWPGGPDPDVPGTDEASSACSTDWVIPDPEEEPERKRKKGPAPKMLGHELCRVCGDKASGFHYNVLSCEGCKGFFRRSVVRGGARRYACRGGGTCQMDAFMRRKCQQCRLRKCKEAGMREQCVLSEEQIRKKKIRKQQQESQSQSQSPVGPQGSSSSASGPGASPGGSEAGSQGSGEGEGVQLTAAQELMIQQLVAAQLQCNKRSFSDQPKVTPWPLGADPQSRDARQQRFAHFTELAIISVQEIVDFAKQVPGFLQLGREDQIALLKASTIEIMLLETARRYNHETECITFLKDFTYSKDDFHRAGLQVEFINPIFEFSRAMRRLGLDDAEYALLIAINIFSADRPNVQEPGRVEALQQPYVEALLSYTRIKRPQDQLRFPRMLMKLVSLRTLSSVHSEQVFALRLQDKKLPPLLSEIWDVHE
Format: functional, cell-based.

Assay [8] in a line: cells. The class given is functional, cell-based. The source holds these as a separate data set.
The target of assay [9] is T3, Endoribonuclease toxin MazF (Escherichia coli K-12, UniProt P0AE70).
T3 sequence (P0AE70 whole entry): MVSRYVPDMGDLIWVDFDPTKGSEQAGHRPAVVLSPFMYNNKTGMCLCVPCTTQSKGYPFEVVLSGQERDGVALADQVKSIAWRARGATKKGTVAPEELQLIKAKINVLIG
Description: MazF toxin RNase activators, dose response, biochemical, fluorescence, single-stranded RNA substrate, uHTS hits (AID 588481). Format: functional.

For assay [10], the target named is T3, Endoribonuclease toxin MazF. Description: fluorescent RNA oligo signal without MazF, dose response, counter-screen for MazEF activator project, biochemical, fluorescence, single-stranded RNase substrate (AID 588502). Format: functional.
The nature of assay [11]: HepG2 cell cytotoxicity, dose response, cytotoxicity control, ATP luminescence, cherry-pick, activator set 2 (AID 1053143). Format: functional, cell-based.
A short description of assay [12]: NIH:OVCAR-3 ovarian cancer cell cytotoxicity, dose response, PAX8 inhibitor project, plate reader, dry powder samples (AID 743044). The class given is functional, cell-based.
A short description of assay [13]: non-specific cell cytotoxicity, dose response, cytotoxicity control for PAX8 inhibitor project, plate reader, dry powder samples (AID 743021). Format: functional, cell-based.
The target in another assay is Paired box protein Pax-8 (Homo sapiens, UniProt Q06710). Description: inhibitors of PAX8-driven TPO luciferase reporter, dose response, RMG-I cells, cherry-pick (AID 687027).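 Further: luciferase reporter driven by Pax8 target thyroperoxidase promoter measured by SteadyGlo luminescence.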 Format: functional, cell-based. (In general: A reporter such as luciferase makes a cellular process visible.)
A short description of assay [14]: IGROV1 ovarian cancer cell cytotoxicity, dose response, PAX8 inhibitor project, plate reader, dry powder samples (AID 743043). The following applies: IGROV-1. The class given is functional, cell-based.
The nature of assay [15]: cytotoxicity in OVCAR8 ovarian cancer cells, dose response, PAX8 project, cell-based, plate reader, dry powder samples (AID 743197). The class given is functional. The following applies: OVCAR-8.
Assay [16] in a line: A2780 ovarian cancer cell cytotoxicity, dose response, cytotoxicity control, plate reader, dry powder samples (AID 743046). Format: functional, cell-based.
The next assay deals with INS1. In words: beta cell apoptosis inhibitors, cytokine rescue, dose response, luminescence, retest (AID 449756).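 Further: cell death triggered by IL-1 beta plus TNF-alpha plus IFN-gamma mixture; protective hits raise ATP signal compared with cytokine alone wells.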 Format: functional, cell-based. The conditions noted are these: Rattus norvegicus.
Assay [17] is described as follows: control 3'UTR Renilla luciferase suppression, dose response, counter-screen for Shn3 inhibitor project, cell-based, Clone20-Shn3RL, cherry-picked (AID 624133). Format: functional.
Assay [18] in a line: inhibitors of firefly luciferase expression or activity, dose response, H4 neuroglioma cells, luminescence (AID 1990). Format: functional, cell-based.
Assay [19] can be described thus: growth suppression of PTEN-null colon cells, dose response, cell-based, HCT116 PTEN knockout (AID 1047).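 Further: HCT116 colon tumor cells with PTEN knocked out; cells exposed to compound for 60 hours before readout; potency for loss of cell viability measured by luminescence.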 Format: functional.
Assay [20] can be described thus: Luminescence Cell-Based Dose Response HTS to Identify Inhibitors of 5'UTR Stem-Loop Driven Prion Protein mRNA Translation in H4 Neuroglioblastoma Cells. [Related pubchem assays: 1827 (Project Summary), 1813 (Primary HTS)]. Format: functional.
Assay [21] relates to HEK293. In words: cells. Format: functional, cell-based. The following applies: Homo sapiens.
Assay [22] can be described thus: HEK293T cytotoxicity, dose response, cytotoxicity control for miR-122 modulator project, cell-based, activator set, cherry-pick (AID 720690).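 Further: HEK293T human cells scored for general mammalian cytotoxicity.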 The class given is functional.
Assay [23] has as its system HEK293. Description: cells. The conditions noted are these: Homo sapiens. The class given is functional, cell-based. This is another data set of the same source.
The nature of assay [24]: growth suppression of beta-catenin-knockout colon cells, dose response, cell-based, HCT116, human colon tumor (AID 1045).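 Further: HCT116 colon tumor cells with beta catenin knocked out; cells exposed to compound for 60 hours.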 Format: functional.
Assay [25] addresses Photoreceptor-specific nuclear receptor (Homo sapiens, UniProt Q9Y5X4). The class given is functional, cell-based.
In assay [26] the test system is HEK293. Description: NOD1 signaling inhibitors, primary screen, cell-based, luminescence, uHTS (AID 1578). The conditions noted are these: Homo sapiens. The class given is functional.
The subject of assay [27] is HEK293. In words: NOD2 signaling inhibitors in MDP-stimulated cells, cell-based, uHTS, luminescence (AID 2001). Format: functional. The following applies: Homo sapiens.
The nature of assay [28]: inhibitors of HIV Env-driven cell fusion, dose response, cherry-pick (AID 652057). Format: functional, cell-based.
Assay [29] in a line: inhibitors of SNCA 5'UTR-driven reporter translation, confirmation, H4 neuroglioma cells, luminescence (AID 1988). Format: functional, cell-based.
Assay [30] can be described thus: CEM21 lymphoblast cell cytotoxicity, dose response, cytotoxicity control for viral fusion inhibitor project, CellTiter-Glo luminescence, cherry-picked (AID 652042).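 Further: potency for signal decrease meaning cytotoxicity.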 The class given is functional, cell-based. (In general: ATP-based viability assays read luminescence as a measure of living cells.)
Assay [31] is described as follows: HEK293T cytotoxicity, dose response, cytotoxicity control for miR-122 modulator project, cell-based, inhibitor set, cherry-pick, set 2 (AID 720697). The class given is functional.
The nature of assay [32]: Luminescence Cell-Based Dose Retest to Confirm Inhibitors of Cancer Stem Cells. [Related pubchem assays (depositor defined):AID2717, AID2721]. The class given is functional. The following applies: Homo sapiens.
Assay [33] can be described thus: inhibitors of intracellular T. cruzi replication, confirmation, NIH3T3 host cells, beta-gal luminescence (AID 2044).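 Further: intracellular parasites grown in NIH/3T3 mouse fibroblasts as host cells; luminescent beta-galactosidase reporter signal from transgenic T. cruzi replicating inside host cells; inhibitors lower the luminescence signal.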 The class given is functional, cell-based.
A short description of assay [34]: cytotoxicity toward NIH3T3 fibroblasts, dose response, counter-screen, cell-based, ATP luminescence, mouse fibroblasts (AID 2010).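 Further: cells exposed to compound for about 90 hours before reading.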 The class given is functional.
A short description of assay [35]: off-target signal loss in HeLa-CEM21 co-culture – HeLa F-luc CTL cells, cherry-picked, counter-screen for HIV-1 Env fusion inhibitor project, dose response (AID 652040).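 Further: potency for signal decrease marking cytotoxic or nonspecific inhibition.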 The class given is functional, cell-based.

Chain of Disintegrin and metalloproteinase domain-containing protein 17 (P78536 whole entry, the tested form may be a part): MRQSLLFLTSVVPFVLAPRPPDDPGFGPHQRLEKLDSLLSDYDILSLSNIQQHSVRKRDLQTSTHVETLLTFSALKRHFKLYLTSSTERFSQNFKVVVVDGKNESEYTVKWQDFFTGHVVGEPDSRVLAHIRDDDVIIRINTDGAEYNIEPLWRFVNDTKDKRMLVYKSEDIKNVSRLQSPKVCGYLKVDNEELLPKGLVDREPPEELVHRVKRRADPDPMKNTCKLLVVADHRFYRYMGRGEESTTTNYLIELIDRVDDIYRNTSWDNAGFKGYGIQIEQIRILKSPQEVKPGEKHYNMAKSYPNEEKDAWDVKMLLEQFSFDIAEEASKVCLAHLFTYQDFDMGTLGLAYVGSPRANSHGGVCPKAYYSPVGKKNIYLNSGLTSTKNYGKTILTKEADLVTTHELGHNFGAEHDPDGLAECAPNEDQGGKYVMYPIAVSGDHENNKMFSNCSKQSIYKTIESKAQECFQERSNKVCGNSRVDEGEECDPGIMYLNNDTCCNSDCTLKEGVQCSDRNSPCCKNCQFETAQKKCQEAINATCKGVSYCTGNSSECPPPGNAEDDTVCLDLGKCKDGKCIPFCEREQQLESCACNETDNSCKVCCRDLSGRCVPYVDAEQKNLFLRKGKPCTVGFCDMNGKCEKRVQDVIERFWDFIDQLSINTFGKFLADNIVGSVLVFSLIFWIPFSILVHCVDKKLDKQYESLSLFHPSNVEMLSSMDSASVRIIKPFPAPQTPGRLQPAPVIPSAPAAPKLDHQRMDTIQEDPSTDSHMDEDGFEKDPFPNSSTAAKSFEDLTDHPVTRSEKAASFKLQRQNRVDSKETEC
Chain of Photoreceptor-specific nuclear receptor (Q9Y5X4 whole entry): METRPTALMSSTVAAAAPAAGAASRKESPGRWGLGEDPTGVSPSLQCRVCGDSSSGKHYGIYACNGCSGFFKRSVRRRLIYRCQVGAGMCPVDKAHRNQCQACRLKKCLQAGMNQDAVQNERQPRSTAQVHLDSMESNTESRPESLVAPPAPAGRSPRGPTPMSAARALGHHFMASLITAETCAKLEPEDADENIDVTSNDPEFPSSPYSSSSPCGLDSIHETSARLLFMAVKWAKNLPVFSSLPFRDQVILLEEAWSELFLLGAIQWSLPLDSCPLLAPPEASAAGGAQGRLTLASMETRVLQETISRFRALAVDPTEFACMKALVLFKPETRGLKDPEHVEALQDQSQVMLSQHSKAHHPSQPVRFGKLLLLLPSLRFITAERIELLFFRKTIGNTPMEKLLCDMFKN
Chain of Paired box protein Pax-8 (Q06710 whole entry): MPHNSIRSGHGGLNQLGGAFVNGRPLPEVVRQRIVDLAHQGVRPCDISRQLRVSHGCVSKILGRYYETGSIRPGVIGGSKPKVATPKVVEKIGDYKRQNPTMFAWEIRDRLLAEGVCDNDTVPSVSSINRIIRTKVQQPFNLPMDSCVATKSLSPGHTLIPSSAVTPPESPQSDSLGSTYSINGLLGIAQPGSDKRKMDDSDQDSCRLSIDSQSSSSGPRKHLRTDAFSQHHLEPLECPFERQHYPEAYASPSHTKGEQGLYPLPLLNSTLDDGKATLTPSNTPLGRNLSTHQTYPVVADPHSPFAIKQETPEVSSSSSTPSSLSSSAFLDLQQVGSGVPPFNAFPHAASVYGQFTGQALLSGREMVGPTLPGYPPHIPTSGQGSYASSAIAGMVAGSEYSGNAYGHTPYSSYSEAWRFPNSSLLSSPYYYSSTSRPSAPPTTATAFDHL
Chain of Ion channel NompC (Q7T1G6 whole entry): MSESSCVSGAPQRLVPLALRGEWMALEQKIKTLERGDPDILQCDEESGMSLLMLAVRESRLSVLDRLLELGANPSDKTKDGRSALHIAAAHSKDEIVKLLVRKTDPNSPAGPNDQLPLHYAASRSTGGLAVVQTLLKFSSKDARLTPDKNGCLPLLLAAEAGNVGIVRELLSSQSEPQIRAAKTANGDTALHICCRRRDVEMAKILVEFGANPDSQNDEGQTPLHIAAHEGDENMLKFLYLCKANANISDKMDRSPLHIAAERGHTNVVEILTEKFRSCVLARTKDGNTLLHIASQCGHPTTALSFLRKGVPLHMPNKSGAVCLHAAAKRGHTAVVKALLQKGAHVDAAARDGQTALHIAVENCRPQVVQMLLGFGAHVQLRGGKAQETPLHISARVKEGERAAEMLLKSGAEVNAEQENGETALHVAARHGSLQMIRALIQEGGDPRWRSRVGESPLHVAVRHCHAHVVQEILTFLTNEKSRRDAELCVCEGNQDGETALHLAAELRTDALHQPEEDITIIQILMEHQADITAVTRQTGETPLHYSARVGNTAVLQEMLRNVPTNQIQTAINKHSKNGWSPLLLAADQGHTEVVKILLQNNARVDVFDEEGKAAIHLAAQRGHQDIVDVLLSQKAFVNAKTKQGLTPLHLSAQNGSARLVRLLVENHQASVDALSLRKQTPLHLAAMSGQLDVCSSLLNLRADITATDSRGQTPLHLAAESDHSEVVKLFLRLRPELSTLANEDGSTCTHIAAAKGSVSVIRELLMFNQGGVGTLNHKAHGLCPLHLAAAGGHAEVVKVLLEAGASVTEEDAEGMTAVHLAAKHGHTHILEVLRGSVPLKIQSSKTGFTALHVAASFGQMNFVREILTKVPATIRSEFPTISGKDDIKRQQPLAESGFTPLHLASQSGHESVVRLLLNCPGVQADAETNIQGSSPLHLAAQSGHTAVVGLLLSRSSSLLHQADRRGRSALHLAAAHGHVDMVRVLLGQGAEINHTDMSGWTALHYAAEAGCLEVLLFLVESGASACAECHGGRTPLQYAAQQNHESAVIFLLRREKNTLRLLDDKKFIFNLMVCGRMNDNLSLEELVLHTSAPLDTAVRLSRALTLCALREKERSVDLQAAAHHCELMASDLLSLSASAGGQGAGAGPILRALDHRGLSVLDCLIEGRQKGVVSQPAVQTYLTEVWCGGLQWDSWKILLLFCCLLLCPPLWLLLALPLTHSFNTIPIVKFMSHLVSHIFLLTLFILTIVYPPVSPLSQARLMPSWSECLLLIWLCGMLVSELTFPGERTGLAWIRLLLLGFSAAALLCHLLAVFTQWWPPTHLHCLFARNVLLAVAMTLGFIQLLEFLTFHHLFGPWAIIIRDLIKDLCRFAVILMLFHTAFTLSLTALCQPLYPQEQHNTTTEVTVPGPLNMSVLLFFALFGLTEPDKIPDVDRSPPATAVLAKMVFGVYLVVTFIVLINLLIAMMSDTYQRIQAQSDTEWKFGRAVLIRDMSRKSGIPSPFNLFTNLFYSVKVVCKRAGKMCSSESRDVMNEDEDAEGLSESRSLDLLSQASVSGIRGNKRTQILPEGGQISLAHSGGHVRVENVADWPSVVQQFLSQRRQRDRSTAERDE

As for `COc1ccc(-c2n[nH]c(=S)n2-c2ccc(Br)cc2)cc1OC`, the IC50 in [1] was 41.6 µM (inactive).

With `COc1ccc(NS(=O)(=O)c2ccc(OC)c(N(C)S(=O)(=O)c3ccc(Cl)cc3)c2)cc1`, the AC50 in assay [2] is 3.54 µM (active); in assay [3], 38.7 µM (active); in assay [4], 2.92 µM (active). Moreover, the EC50 on Mucolipin-3 was > 9.99 µM (not active); on Ion channel NompC, > 29.9 µM (not active).

Regarding `COc1ccc(-c2nnc(S)n2-c2ccc(Br)cc2)cc1OC`, the IC50 in [5] was > 69.5 µM (inactive).

In the case of `Cc1ccccc1-c1nnn(Cc2ccc(F)cc2Cl)n1`, the IC50 in assay [1] and in assay [5] was > 69.5 µM (inactive) throughout.

Consider `OCc1ccc(N=Nc2ccccc2)cc1`, for which the EC50 was 8.65 µM (active) in “cells [6]”, > 67.5 µM (inactive) in [7] and > 350 µM (not active) in the assay “cells [8]”.

`Nc1c(C(=O)c2ccccc2)sc2nsc(SCCN3CCOCC3)c12`: the EC50 in [9] and in assay [10] was > 99 µM (inactive) each time. The AC50 in assay [11] is 51.6 µM (active).

`O=C(C1CCC1)N1CC(=O)N2[C@H](CO)[C@H](c3ccc(C#CCc4ccccc4)cc3)[C@H]2C1`: the AC50 in assay [12] was 11.4 µM (active); in assay [13] it was 48 µM (active); on Paired box protein Pax-8 it was 24.3 µM (active); in assay [14], 42.6 µM (active); in assay [15] it was 20.4 µM (active); in assay [16], 0.324 µM (active).

With `CCN(CC)S(=O)(=O)c1ccc(NC(=O)Nc2cccc(C(F)(F)F)c2)cc1`, the half-maximal activity concentration (AC50) in the assay with INS1 was 4.6 µM (active); in assay [17], 10.8 µM (active); in assay [22] it was 5.75 µM (active); in assay [3] it was 27.6 µM (active); in [4], 5.6 µM (active); in assay [28], 9.67 µM (active). Besides, the AC50 was 13.6 µM (active) in assay [30], 9.71 µM (active) in assay [31], 2.13 µM (active) in assay [32] and 10.3 µM (active) in assay [35]. For the same molecule, the EC50 in assay [18] was > 120 µM (not active); in assay [19], 4.56 µM (active); in assay [20], 14.9 µM (active); in [24], 6.35 µM (active); in the assay with HEK293 [26] it was > 20 µM (inactive); in [29] it was 11.1 µM (active). For the same molecule, the concentration for a half-maximal effect (EC50) is 1.67 µM (active) in assay [33] and > 60 µM (not active) in assay [34]. In addition, the IC50 in the assay with HEK293 [21] is 3.14 µM (active); in the assay on HEK293 [23] it was 8.73 µM (active); in assay [25] it was 6.94 µM (active); in the assay on HEK293 [27] it was 4.48 µM (inactive).

The record behind these values is ChEMBL document CHEMBL1201862, “PubChem BioAssay data set” (2004).
